Data taken from patent publication US4925651A, “Radiofluoro-tyrosine derivatives, the preparation and use thereof” (priority 1988, dated 1990).
Like-named read-outs stand apart in the source and are kept apart here. One block for each molecule: values may come before it.

What was measured:
[1] = Comparative uptake and incorporation of halogenated amino acids in mouse brain (40 min after i.v. injection); assay type: in vivo; details: mouse, in vivo, iv
Experimental: (§1) Typically, 0.75 to 1.5 MBq of L-2-[^18 F]-fluorotyrosine in 50 to 100 μl of isotonic solution were injected into the tail vein of NMRI mice.
(§2) After a defined incubation time, the animals were sacrificed and the brains were removed within 20 s and frozen in liquid nitrogen. Parts of the frontal cortex were removed (about 20 mg), weighed, homogenized in distilled water by ultrasonic treatment and, after 10 s, trichloroacetic acid (TCA) was added (final concentration >10%). The protein fraction precipitated by TCA was spun down and washed 2× with TCA solution, and the radioactivity in the combined supernatants and in the protein pellet was measured.
(§3) Results of comparative experiments on the incorporation of halogenated amino acids in mouse brain (40 min after i.v. injection) are compiled in the table which follows: […]

mouse brain [2] = experiment: as above; assay type: in vivo
Experimental: as §1, §2, §3

[3] = system: cerebral proteins (frontal cortex); experiment: Fraction of radioactivity incorporated in cerebral proteins (TCA precipitation, frontal cortex) after tail vein injection; assay type: in vivo, NMRI mice
Experimental: as §1, §2

brain tissue = experiment: HPLC investigation of TCA supernatant for free 2-[^18 F]-fluorotyrosine in brain tissue; assay type: in vivo, NMRI mice; details: for proportion of free (unmetabolized) 2-fluorotyrosine of the total tissue activity: brain tissue supernatant, HPLC; for recovery of the activity: free plus protein-incorporated
Experimental: as §1, §2
The supernatant was investigated by HPLC (for conditions, see Example 1) for the proportion of free 2-[^18 F]-fluorotyrosine. It emerged from this that the activity not incorporated in proteins was present almost entirely as unmetabolized 2-fluorotyrosine.

tissue = experiment: Distribution of radioactivity and metabolite analysis in tissue up to two hours after injection; assay type: in vivo
Text: (§4) Appropriate analysis in the striatum, the area of the brain which is highly permeated by dopaminergic nerve cells, has also ruled out the formation of catecholamines from 2-fluorotyrosine. Thus 2-[^18 F]-fluorotyrosine is an ideal tracer for the quantification of the rate of protein synthesis using a three-compartment model, which is relatively easy to handle mathematically and as is used for 2-[^18 F]-fluorodeoxyglucose in PET studies. The uptake of >1.6% of the injected dose per gram of tissue (see table below) is, moreover, adequate for PET investigations.

striatum = experiment: Analysis for catecholamine formation in the striatum; assay type: in vivo
Text: as §4

[4] = system: cerebral protein synthesis; details: Coenen et al., cited from earlier work
mouse brain [5] = details: 40 min, footnote * Literature data; cited from earlier work
[6] = mouse brain, 40 min after i.v. injection, read-out: Uptake
[7] = mouse brain, 40 min after i.v. injection

Compound: NC(Cc1ccccc1[18F])C(=O)O (stereo not shown) [2 - ^18 FPhe]
tissue uptake at 40 min [1]: 2 ± 0.4 %ID/g
Incorporation (mouse brain [2]; mouse, in vivo, iv): 11 ± 2 % of cerebral activity

Compound: N[C@@H](Cc1ccc(O)cc1[18F])C(=O)O [2 - ^18 FTyr, 2-[^18 F]-fluorotyrosine]
tissue uptake at 40 min [1, 6]: 1.3 ± 0.005 %ID/g
tissue uptake at 40 min ([1]; refers to table, read-out: uptake of the injected dose per gram of tissue): > 1.6 %ID/g
cerebral incorporation rate (in words) (mouse brain [2]; after 40 min): comparable to that for the natural amino acids methionine and phenylalanine
Incorporation (mouse brain [2]; [7]): 62 ± 3 % of cerebral activity
fraction incorporated in cerebral proteins ([3]; 20 min after injection): 44±3%
fraction incorporated in cerebral proteins ([3]; 60 min after injection): 84%
incorporation in cerebral proteins (in words) ([3]; >1 h after the injection): almost quantitative
proportion of free (unmetabolized) 2-fluorotyrosine of the total tissue activity (brain tissue; 20 min): 51±3%
recovery of the activity (brain tissue; 20 min): 95±6%
proportion of free (unmetabolized) 2-fluorotyrosine of the total tissue activity (brain tissue; 60 min): 11±2%
recovery of the activity (brain tissue; 60 min): 95±4%
chemical form of the activity in brain tissue (brain tissue; HPLC of supernatant): present in brain tissue virtually only in two chemical forms
influence from redistributed labeled metabolites from the blood (tissue; in vivo): can be ruled out
distribution of radioactivity in tissue (tissue; up to two hours after injection): distributed only over the free fluorinated amino acid and the portion incorporated in protein
formation of catecholamines (striatum): ruled out

Compound: N[C@@H](Cc1ccc(O)c(F)c1)C(=O)O [3 - ^18 FTyr, 3-fluorotyrosine]
tissue uptake at 40 min [1, 6]: 0.8 ± 0.005 %ID/g
Incorporation (mouse brain [2]; [7]): 26 ± 1 % of cerebral activity

Compound: C[C@](N)(Cc1ccc(O)c([123I])c1)C(=O)O [3 - ^123 I-α-MeTyr, 3-iodo-α-methyltyrosine]
tissue uptake at 40 min [1]: 0.8 ± 0.1 %ID/g
Incorporation (mouse brain [2]; mouse, in vivo, iv): 18 ± 1 % of cerebral activity

Compound: NC(Cc1ccc(O)c([123I])c1)C(=O)O (stereo not shown) [3 - ^123 ITyr]
tissue uptake at 40 min [1]: 0.2 ± 0.005 %ID/g
Incorporation (mouse brain [2]; mouse, in vivo, iv): 13 ± 4 % of cerebral activity

Compound: NC(Cc1ccc([75Br])cc1)C(=O)O (stereo not shown) [4 - ^75 BrPhe]
tissue uptake at 40 min [1, 6]: 2 ± 0.4 %ID/g
Incorporation (mouse brain [2]; [7]): 17 ± 5 % of cerebral activity

Compound: CC(C)C[C@H](N)C(=O)O [^14 C-Leu, leucine]
Incorporation (mouse brain [5]): 85 ± 4 % of cerebral activity

Compound: N[C@@H](Cc1ccccc1)C(=O)O [^14 C-Phe, phenylalanine]
Incorporation (mouse brain [2]; [7]): 63 ± 2 % of cerebral activity

Further lines, with some results ahead:

tissue uptake at 40 min [1]: 2.4 ± 0.4 %ID/g
Incorporation (mouse brain [2]; mouse, in vivo, iv): 15 ± 1 % of cerebral activity
Compound: NC(Cc1ccccc1[75Br])C(=O)O (stereo not shown) [2 - ^75 BrPhe]

tissue uptake at 40 min [1]: 1.5 ± 0.3 %ID/g
Incorporation (mouse brain [2]; mouse, in vivo, iv): 20 ± 2 % of cerebral activity
Compound: NC(Cc1ccc([18F])cc1)C(=O)O (stereo not shown) [4 - ^18 FPhe, p-[^18 F]-fluorophenylalanine]
incorporation rate in cerebral protein (in words) [4]: relatively low
radioactivity in cerebral tissue assigned to an unidentified metabolite pool ([4]; animal model): about 20%

Incorporation (mouse brain [2]; mouse, in vivo, iv): 57 ± 3 % of cerebral activity
Compound: CSCC[C@H](N)C(=O)O [^14 C-Met, methionine]
